The values below come from US7361743B2 (Pfizer Inc, priority 2004, dated 2008).

In brackets after ≈: the same amount, converted by molar mass. Where two headings read alike, the source gives them in different places.

Assay type in all cases: cell-based
In one experiment the test system is Haemophilus influenzae. Description: Susceptibility testing, NCCLS microdilution MIC. Conditions: for MIC: Haemophilus influenzae.
Another experiment concerns Enterococcus faecalis. In words: Susceptibility testing, NCCLS microdilution MIC. Conditions: for MIC: Enterococcus faecalis. (Dilution methods test growth across graded concentrations, often in twofold steps.)
A further experiment concerns Bacteroides fragilis. In words: Susceptibility testing, NCCLS microdilution MIC (anaerobe). Conditions: for MIC: Bacteroides fragilis.
Another experiment concerns Staphylococcus aureus. Description: Susceptibility testing, NCCLS microdilution MIC. As to conditions: ATCC25923, S. aureus ATCC 25923, Example A′, read-out: MIC S. aureus.
Setting [1] is: ATCC31517, Example A′, strain ATCC 31517, 24 h at 35° C., read-out: MIC against H. influenzae strain ATCC 31517.
[2] abbreviates: Example A′, strain ATCC29212, 24 h at 35° C., read-out: MIC against Enterococcus faecalis strain ATCC29212.
Setting [3] is: ATCC31517, Example A, strain ATCC 31517, 16-20 h at 35° C., read-out: MIC against H. influenzae strain ATCC 31517.
The mark [4] stands for this setting: ATCC31517, H. influenzae ATCC 31517, NCCLS microdilution, read-out: MIC H. influenzae.
[5] abbreviates: ATCC29212, E. faecalis ATCC 29212, NCCLS microdilution, read-out: MIC E. faecalis.
Where [6] appears, read: Example A, strain ATCC29212, 16-20 h at 35° C., read-out: MIC against Enterococcus faecalis strain ATCC29212.
The mark [7] stands for this setting: ATCC25285, B. fragilis ATCC 25285, NCCLS microdilution, anaerobe, read-out: MIC B. fragilis.
Where [8] appears, read: Example A, strain ATCC25285, anaerobe, 35° C. for 46-48 h, read-out: MIC against Bacteroides fragilis strain ATCC25285.
[9] abbreviates: ATCC31517, H. influenzae ATCC 31517, Example A′, read-out: MIC H. influenzae.
Setting [10] is: ATCC29212, E. faecalis ATCC 29212, Example A′, read-out: MIC E. faecalis.
Setting [11] is: ATCC25285, B. fragilis ATCC 25285, Example A′, read-out: MIC B. fragilis.

For the compound `CS[C@H]1O[C@H]([C@H](NC(=O)[C@@H]2C[C@@H](CC=C(F)F)CN2)C(C)C)[C@H](O)[C@H](O)[C@H]1O` [Example 1, 4-(3,3-difluoroprop-2-ene)-pyrrolidine-2-carboxylic acid [2-methyl-1-(3,4,5-trihydroxy-6-methylsulfanyl-tetrahydro-pyran-2-yl)-propyl]-amide], the MIC in the experiment on Haemophilus influenzae (setting [1]) was not below 0.5 µg/mL.
Regarding `CS[C@H]1O[C@H]([C@H](NC(=O)[C@@H]2C[C@H](Sc3ccc(F)cc3)CN2)[C@@H](C)O)[C@H](O)[C@H](O)[C@H]1O` (stereo in doubt) [Example 10, 4-(4-Fluoro-phenylsulfanyl)-pyrrolidine-2-carboxylic acid [2-hydroxy-1-(3,4,5-trihydroxy-6-methylsulfanyl-tetrahydro-pyran-2-yl)-propyl]-amide], the MIC is not below 0.5 µg/mL with Haemophilus influenzae (setting [1]) and not above 0.125 µg/mL with Enterococcus faecalis (setting [2]).
As to `CS[C@H]1O[C@H]([C@H](NC(=O)[C@@H]2C[C@H](SCCC(C)C)CN2)[C@@H](C)O)[C@H](O)[C@H](O)[C@H]1O` (stereo in doubt) [Example 12, 4-(3-Methyl-butylsulfanyl)-pyrrolidine-2-carboxylic acid [2-hydroxy-1-(3,4,5-trihydroxy-6-methylsulfanyl-tetrahydro-pyran-2-yl)-propyl]-amide], the MIC with Haemophilus influenzae (setting [1]) is not below 0.5 µg/mL.
With `CS[C@H]1O[C@H]([C@H](NC(=O)[C@@H]2C[C@@H](CCCc3ccncc3)CN2)C(C)C)[C@H](O)[C@H](O)[C@H]1O` (stereo in doubt) [Example 3, 4-(3-Pyridin-4-yl-propyl)-pyrrolidine-2-carboxylic acid [2-methyl-1-(3,4,5-trihydroxy-6-methylsulfanyl-tetrahydro-pyran-2-yl)-propyl]-amide], the MIC in the experiment on Haemophilus influenzae (setting [1]) was not below 0.5 µg/mL; in the experiment with Enterococcus faecalis (setting [2]) it was not above 0.125 µg/mL.
The corresponding values for `CS[C@H]1O[C@H]([C@H](NC(=O)[C@@H]2C[C@H](SCCC(F)(F)F)CN2)[C@@H](C)O)[C@H](O)[C@H](O)[C@H]1O` [Example 11, 4-(3,3,3-Trifluoro-propylsulfanyl)-pyrrolidine-2-carboxylic acid [2-hydroxy-1-(3,4,5-trihydroxy-6-methylsulfanyl-tetrahydro-pyran-2-yl)-propyl]-amide] are not below 0.5 µg/mL and not above 0.125 µg/mL.
`CS[C@H]1O[C@H]([C@H](NC(=O)[C@@H]2C[C@@H](C/C=C/c3ccncc3)CN2)C(C)C)[C@H](O)[C@H](O)[C@H]1O` (stereo in doubt) [Example 2, 4-(3-Pyridin-4-yl-allyl)-pyrrolidine-2-carboxylic acid [2-methyl-1-(3,4,5-trihydroxy-6-methylsulfanyl-tetrahydro-pyran-2-yl)-propyl]-amide]: the MIC with Haemophilus influenzae (setting [1]) is not below 0.5 µg/mL.
For `CCCC1CCN[C@H](C(=O)N[C@@H]([C@H]2O[C@H](SC)[C@H](O)[C@@H](O)[C@H]2O)[C@H](C)Cl)CC1` (stereo partly shown) [Example 47, 5-Propyl-azepane-2-carboxylic acid [2-chloro-1-(3,4,5-trihydroxy-6-methylsulfanyl-tetrahydro-pyran-2-yl)-propyl]-amide], the MIC in the experiment on Haemophilus influenzae (setting [3]) is 0.5 µg/mL (≈ 1.14 µM); with Haemophilus influenzae (setting [4]), 0.5 µg/mL (≈ 1.14 µM); with Haemophilus influenzae (Example A, strain not stated, 16-20 h at 35° C., read-out: MIC against Haemophilus influenzae) it was not below 4 µg/mL; with Enterococcus faecalis (setting [5]), 0.125 µg/mL (≈ 0.285 µM); in the experiment on Enterococcus faecalis (setting [6]), not above 0.125 µg/mL; in the experiment with Bacteroides fragilis (setting [7]), 0.125 µg/mL (≈ 0.285 µM). In addition, the MIC in the experiment on Bacteroides fragilis (setting [8]) was not above 0.5 µg/mL.
Consider `CCS[C@@H]1CN[C@H](C(=O)N[C@@H]([C@H]2O[C@H](SC)[C@H](O)[C@@H](O)[C@H]2O)[C@@H](C)O)C1` [Example 5, 4-Ethylsulfanyl-pyrrolidine-2-carboxylic acid [2-hydroxy-1-(3,4,5-trihydroxy-6-methylsulfanyl-tetrahydro-pyran-2-yl)-propyl]-amide], for which the MIC was not below 0.5 µg/mL in the experiment with Haemophilus influenzae (setting [1]) and not above 0.125 µg/mL in the experiment with Enterococcus faecalis (setting [2]).
Consider `CCCCCC1CCN[C@H](C(=O)N[C@@H]([C@H]2O[C@H](SC)[C@H](O)[C@@H](O)[C@H]2O)[C@H](C)Cl)CC1` (stereo partly shown) [Example 145, 5-Pentyl-azepane-2-carboxylic acid [2-chloro-1-(3,4,5-trihydroxy-6-methylsulfanyl-tetrahydro-pyran-2-yl)-propyl]-amide], for which the MIC was 0.5 µg/mL (≈ 1.07 µM) in the experiment on Haemophilus influenzae (setting [3]); 0.5 µg/mL (≈ 1.07 µM) in the experiment on Haemophilus influenzae (setting [4]); 0.125 µg/mL (≈ 0.268 µM) with Enterococcus faecalis (setting [5]); not above 0.125 µg/mL in the experiment with Enterococcus faecalis (setting [6]); 0.5 µg/mL (≈ 1.07 µM) with Bacteroides fragilis (setting [7]); not above 0.5 µg/mL with Bacteroides fragilis (setting [8]).
`CCC[C@@H]1C[C@@H](C(=O)N[C@@H]([C@H]2O[C@H](SC)[C@H](O)[C@@H](O)[C@H]2O)[C@H](C)Cl)N(C)C1` [clindamycin, reference compound]: in the experiment on Haemophilus influenzae (H. influenzae ATCC 31517, Example A′), the “MIC H. influenzae” value was 8 µg/mL (≈ 18.8 µM). Also, the MIC was 8 µg/mL (≈ 18.8 µM) with Haemophilus influenzae (setting [3]); 8 µg/mL (≈ 18.8 µM) in the experiment on Haemophilus influenzae (setting [1]); 8 µg/mL (≈ 18.8 µM) in the experiment with Haemophilus influenzae (setting [4]); more than 8 µg/mL in the experiment on Enterococcus faecalis (setting [5]); more than 8 µg/mL with Enterococcus faecalis (setting [6]); more than 8 µg/mL with Enterococcus faecalis (setting [2]). The values for the MIC with Bacteroides fragilis (setting [7]), with Bacteroides fragilis (setting [8]) and in the experiment on Staphylococcus aureus were 2 µg/mL (≈ 4.71 µM), 2 µg/mL (≈ 4.71 µM) and 0.125 µg/mL (≈ 0.294 µM), respectively. Also, the “MIC E. faecalis” value with Enterococcus faecalis (E. faecalis ATCC 29212, Example A′) was more than 8 µg/mL. Further, the “MIC B. fragilis” value in the experiment on Bacteroides fragilis (B. fragilis ATCC 25285, Example A′) amounted to 2 µg/mL (≈ 4.71 µM).
As for `CCOCCC[C@@H]1CCN[C@H](C(=O)N[C@@H]([C@H]2O[C@H](SC)[C@H](O)[C@@H](O)[C@H]2O)[C@H](C)Cl)CC1` [Example 19′, 5-(3-Ethoxy-propyl)-azepane-2-carboxylic acid [2-chloro-1-(3,4,5-trihydroxy-6-methylsulfanyl-tetrahydro-pyran-2-yl)-propyl]-amide], the MIC in the experiment with Haemophilus influenzae (setting [9]) amounted to 4 µg/mL (≈ 8.28 µM); in the experiment with Enterococcus faecalis (setting [10]), 2 µg/mL (≈ 4.14 µM); with Bacteroides fragilis (setting [11]), 8 µg/mL (≈ 16.6 µM); in the experiment with Staphylococcus aureus it was 0.125 µg/mL (≈ 0.259 µM).
With `CS[C@H]1OC([C@H](NC(=O)[C@@H]2C[C@H](CC3CCC3)CCN2)[C@H](C)Cl)[C@H](O)[C@H](O)[C@H]1O` (stereo in doubt) [Example 82, 4-Cyclobutylmethyl-piperidine-2-carboxylic acid [2-chloro-1-(3,4,5-trihydroxy-6-methylsulfanyl-tetrahydro-pyran-2-yl)-propyl]-amide], the MIC with Haemophilus influenzae (setting [4]) was 2 µg/mL (≈ 4.43 µM); in the experiment with Enterococcus faecalis (setting [5]), 0.125 µg/mL (≈ 0.277 µM); in the experiment with Enterococcus faecalis (setting [6]), not above 0.125 µg/mL; in the experiment with Bacteroides fragilis (setting [7]), 0.25 µg/mL (≈ 0.554 µM); with Bacteroides fragilis (setting [8]) it was not above 0.5 µg/mL.
Take `CCCCC1CCN[C@H](C(=O)N[C@@H]([C@H]2O[C@H](SC)[C@H](O)[C@@H](O)[C@H]2O)[C@H](C)Cl)CC1` (stereo partly shown) [Example 144, 5-Butyl-azepane-2-carboxylic acid [2-chloro-1-(3,4,5-trihydroxy-6-methylsulfanyl-tetrahydro-pyran-2-yl)-propyl]-amide]: the MIC in the experiment on Haemophilus influenzae (setting [3]) is 0.5 µg/mL (≈ 1.1 µM); in the experiment with Haemophilus influenzae (setting [4]), 0.5 µg/mL (≈ 1.1 µM); with Enterococcus faecalis (setting [5]), 0.03 µg/mL (≈ 0.0662 µM); with Enterococcus faecalis (setting [6]), not above 0.125 µg/mL; in the experiment with Bacteroides fragilis (setting [7]), 0.125 µg/mL (≈ 0.276 µM); with Bacteroides fragilis (setting [8]), not above 0.5 µg/mL.
For `CS[C@H]1OC([C@H](NC(=O)[C@@H]2C[C@H](CCC3CCC3)CCN2)[C@H](C)Cl)[C@H](O)[C@H](O)[C@H]1O` (stereo in doubt) [Example 81, 4-(2-Cyclobutyl-ethyl)-piperidine-2-carboxylic acid [2-chloro-1-(3,4,5-trihydroxy-6-methylsulfanyl-tetrahydro-pyran-2-yl)-propyl]-amide], the MIC in the experiment on Haemophilus influenzae (setting [4]) was 2 µg/mL (≈ 4.3 µM); with Enterococcus faecalis (setting [5]), 0.03 µg/mL (≈ 0.0645 µM); in the experiment on Enterococcus faecalis (setting [6]) it was not above 0.125 µg/mL; in the experiment with Bacteroides fragilis (setting [7]), 0.125 µg/mL (≈ 0.269 µM); in the experiment with Bacteroides fragilis (setting [8]), not above 0.5 µg/mL.
Regarding `CCCCS[C@@H]1CN[C@H](C(=O)N[C@@H]([C@H]2O[C@H](SC)[C@H](O)[C@@H](O)[C@H]2O)[C@@H](C)O)C1` (stereo in doubt) [Example 4, 4-Butylsulfanyl-pyrrolidine-2-carboxylic acid [2-hydroxy-1-(3,4,5-trihydroxy-6-methylsulfanyl-tetrahydro-pyran-2-yl)-propyl]-amide], the MIC was not below 0.5 µg/mL with Haemophilus influenzae (setting [1]) and not above 0.125 µg/mL in the experiment with Enterococcus faecalis (setting [2]).
With `CCS[C@@H]1CN[C@H](C(=O)N[C@@H]([C@H]2O[C@H](SC)[C@H](O)[C@@H](O)[C@H]2O)[C@H](C)Cl)C1` (stereo in doubt) [Example 8, 4-Ethylsulfanyl-pyrrolidine-2-carboxylic acid [2-chloro-1-(3,4,5-trihydroxy-6-methylsulfanyl-tetrahydro-pyran-2-yl)-propyl]-amide], the MIC is not below 0.5 µg/mL in the experiment with Haemophilus influenzae (setting [1]) and not above 0.125 µg/mL with Enterococcus faecalis (setting [2]).
On to `CS[C@H]1O[C@H]([C@H](NC(=O)[C@@H]2CC[C@H](CCCOCCF)CCN2)[C@H](C)Cl)[C@H](O)[C@H](O)[C@H]1O` [Example 20′, 5-[3-(2-Fluoro-ethoxy)-propyl]-azepane-2-carboxylic acid [2-chloro-1-(3,4,5-trihydroxy-6-methylsulfanyl-tetrahydro-pyran-2-yl)-propyl]-amide], for which the MIC was 2 µg/mL (≈ 3.99 µM) with Haemophilus influenzae (setting [9]), 2 µg/mL (≈ 3.99 µM) in the experiment on Enterococcus faecalis (setting [10]), 8 µg/mL (≈ 16 µM) in the experiment with Bacteroides fragilis (setting [11]) and 0.125 µg/mL (≈ 0.249 µM) in the experiment on Staphylococcus aureus.
